By IC50 is commonly meant the concentration needed to halve the response being measured. A higher IC50 goes with lower potency.

The assay concerns Jurkat IL-2 Production. Description: Jurkat IL-2 Production Assay. In kind it is cell-based. Particulars: Homo sapiens, Jurkat cell (ATCC), 18-20 h incubation, PHA 5 μg/mL with 1% FBS, or PMA/Ionomycin with 30% FBS (table does not say which). Here is the method:
Jurkat IL-2 Production Assay
Cell: Jurkat cell (ATCC) was grown in RPMI 1640 with 10% FBS and 1% penicillin/streptomycin. The cell density was kept at 1.2-1.8×10^6/mL in culture flask before seeding into culture plate, and the cell density in the plate was 0.5×10^6/[…]/well.
Culture media: RPMI 1640 with 1% FBS or 30% FBS for high serum assay.
Test compound: serial dilution was done in 100% DMSO, and intermediate dilution was done with RPMI 1640 medium with 1% FBS. The DMSO final concentration in culture well was 0.25%.
Stimulant: PHA (Sigma#L9017-10MG) was used for the assay with 1% FBS in culture medium, and added after 10 minutes exposure of cell to compound/DMSO. The PHA final concentration in culture well was 5 μg/mL. PMA (Sigma# P-8139 5MG)/Ionomycin (Sigma# 10634-5MG) was used for the assay with 30% FBS in culture medium, and added at same time point as the 1% FBS culture assay. The final concentration of PMA was 50 ng/mL, and Ionomycin final concentration was 500 ng/mL.
Incubation: at 37° C. with 5% CO2 and 95% humidity for 18 h˜20 h.
IC50: IC50 was calculated with the data analysis software XLfit4, General Pharmacology model 251.
Compound `Cc1sc(-c2cccnc2)nc1-c1ccc2[nH]c(-c3cncnc3C(C)C)cc2c1` [Example 68, 2-(4-Isopropyl-pyrimidin-5-yl)-5-(5-methyl-2-pyridin-3-yl-thiazol-4-yl)-1H-indole] registered an IC50 of 152 nM. This lies in the sub-micromolar range.

For the compound `Cc1sc(C(C)C)nc1-c1ccc2[nH]c(-c3ccccc3Cl)cc2c1` [Example 69, 2-(2-Chloro-phenyl)-5-(2-isopropyl-5-methyl-thiazol-4-yl)-1H-indole], the midpoint of inhibition, the IC50, lay at 949 nM. The figure for `Cc1sc(C(C)C)nc1-c1ccc2[nH]c(-c3c(F)cccc3F)cc2c1` [Example 70, 2-(2,6-Difluoro-phenyl)-5-(2-isopropyl-5-methyl-thiazol-4-yl)-1H-indole] is 356 nM; for `Cc1sc(C2CC2)nc1-c1ccc2[nH]c(-c3ccccc3Cl)cc2c1` [Example 71] it is 584 nM; for `Cc1sc(C2CC2)nc1-c1ccc2[nH]c(-c3c(F)cccc3F)cc2c1` [Example 72, 5-(2-Cyclopropyl-5-methyl-thiazol-4-yl)-2-(2,6-difluoro-phenyl)-1H-indole] it is 397 nM.

For the compound `Cc1sc(-c2ncco2)nc1-c1ccc2[nH]c(-c3c(F)cccc3F)cc2c1` [Example 73, 2-(2,6-Difluoro-phenyl)-5-(5-methyl-2-oxazol-2-yl-thiazol-4-yl)-1H-indole], the concentration for half-maximal inhibition (IC50) is 60 nM. This IC50 is about 6.6-fold lower than that of the compound before. The figure for `Cc1sc(C2CCOCC2)nc1-c1ccc2[nH]c(-c3c(F)cccc3F)cc2c1` [Example 74, 2-(2,6-Difluoro-phenyl)-5-[5-methyl-2-(tetrahydro-pyran-4-yl)-thiazol-4-yl]-1H-indole] is 668 nM; for `Cn1nc(-c2cccnc2)cc1-c1ccc2[nH]c(-c3ccccc3F)cc2c1` [Example 75, 2-(2-Fluoro-phenyl)-5-(2-methyl-5-pyridin-3-yl-2H-pyrazol-3-yl)-1H-indole] it is 310 nM; for `CCn1nc(-c2cccnc2)cc1-c1ccc2[nH]c(-c3ccccc3F)cc2c1` [Example 76, 2-(2-Fluoro-phenyl)-5-(2-ethyl-5-pyridin-3-yl-2H-pyrazol-3-yl)-1H-indole] it is 108 nM. For `Cn1nc(-c2cccnc2)cc1-c1ccc2[nH]c(-c3ccccc3Cl)cc2c1` [Example 77, 2-(2-Chloro-phenyl)-5-(2-methyl-5-pyridin-3-yl-2H-pyrazol-3-yl)-1H-indole] the value was 169 nM.

In turn, `CCn1nc(-c2cccnc2)cc1-c1ccc2[nH]c(-c3ccccc3Cl)cc2c1` [Example 78, 2-(2-Chloro-phenyl)-5-(2-ethyl-5-pyridin-3-yl-2H-pyrazol-3-yl)-1H-indole] returned an IC50 of 95 nM. Compound `Cc1ccccc1-c1cc2cc(-c3cc(-c4cccnc4)nn3C)ccc2[nH]1` [Example 79, 5-(2-Methyl-5-pyridin-3-yl-2H-pyrazol-3-yl)-2-o-tolyl-1H-indole] gave an IC50 of 139 nM. For `CCn1nc(-c2cccnc2)cc1-c1ccc2[nH]c(-c3ccccc3C)cc2c1` [Example 80, 5-(2-Ethyl-5-pyridin-3-yl-2H-pyrazol-3-yl)-2-o-tolyl-1H-indole] the value was 91 nM; for `Cn1nc(-c2ccccn2)cc1-c1ccc2[nH]c(-c3ccccc3Cl)cc2c1` [Example 81, 2-(2-Chloro-phenyl)-5-(2-methyl-5-pyridin-2-yl-2H-pyrazol-3-yl)-1H-indole], 501 nM. The figure for `Cn1nc(-c2ccccn2)cc1-c1ccc2[nH]c(-c3cc(F)ccc3Cl)cc2c1` [Example 82, 2-(2-Chloro-5-fluoro-phenyl)-5-(2-methyl-5-pyridin-2-yl-2H-pyrazol-3-yl)-1H-indole] is 367 nM.

The compound `Cn1nc(-c2ccccn2)cc1-c1ccc2[nH]c(-c3ccc(F)cc3Cl)cc2c1` [Example 83, 2-(2-Chloro-4-fluoro-phenyl)-5-(2-methyl-5-pyridin-2-yl-2H-pyrazol-3-yl)-1H-indole] showed a half-maximal inhibitory concentration (IC50) of 358 nM. For `Cn1nc(-c2cccnc2)cc1-c1ccc2[nH]c(-c3cccc(F)c3F)cc2c1` [Example 84, 2-(2,3-Difluoro-phenyl)-5-(2-methyl-5-pyridin-3-yl-2H-pyrazol-3-yl)-1H-indole] the value was 399 nM.

These data come from US20110071150A1 (priority 2009, published 2011).
